Paper PMC8580996, “2-Oxoglutarate derivatives can selectively enhance or inhibit the activity of human oxygenases” (Nature Communications, 2021)
“And” between values parts separate entries of the source, which are not always exact repeats. Equal values may be shown once.

Key:
AspH [1] = target: T1, AspH (Homo sapiens, UniProt Q12797); conditions: 0.05 μM AspH, 1.0 μM hFX-CP101-119, 3.0 μM 2OG, ref 21 (supplementary ref 1); cited from earlier work
T1 construct: the tetratricopeptide repeat domain (His6-AspH315-758), was produced and purified as previously reported; made in house
T1 sequence (Q12797 315-758): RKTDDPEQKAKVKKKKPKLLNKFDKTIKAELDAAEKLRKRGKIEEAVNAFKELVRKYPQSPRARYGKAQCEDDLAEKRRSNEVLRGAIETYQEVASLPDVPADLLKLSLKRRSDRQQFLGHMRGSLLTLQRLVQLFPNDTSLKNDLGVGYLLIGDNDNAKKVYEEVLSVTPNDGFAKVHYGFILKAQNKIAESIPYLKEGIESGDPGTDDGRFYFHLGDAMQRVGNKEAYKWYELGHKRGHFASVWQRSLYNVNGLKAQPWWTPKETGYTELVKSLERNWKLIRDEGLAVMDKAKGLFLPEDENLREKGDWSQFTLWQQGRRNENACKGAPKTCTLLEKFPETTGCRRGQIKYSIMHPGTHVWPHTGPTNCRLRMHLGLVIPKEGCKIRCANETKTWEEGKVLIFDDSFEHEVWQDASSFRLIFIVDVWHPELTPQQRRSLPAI

AspH [2] = target: T1, AspH; design: method as in PMID 34163896; conditions: hFX-CP101–119 substrate, 330 μM 2OG or 2OG derivative, t = 15 min; cited from earlier work
FIH = FIH (Homo sapiens, UniProt Q9NWT6); assay: FIH steady-state kinetic parameters (SPE-MS, initial hydroxylation rates); assay type: biochemical; design: slope of initial reaction rate: unit not given here
Chain of FIH (Q9NWT6 whole entry): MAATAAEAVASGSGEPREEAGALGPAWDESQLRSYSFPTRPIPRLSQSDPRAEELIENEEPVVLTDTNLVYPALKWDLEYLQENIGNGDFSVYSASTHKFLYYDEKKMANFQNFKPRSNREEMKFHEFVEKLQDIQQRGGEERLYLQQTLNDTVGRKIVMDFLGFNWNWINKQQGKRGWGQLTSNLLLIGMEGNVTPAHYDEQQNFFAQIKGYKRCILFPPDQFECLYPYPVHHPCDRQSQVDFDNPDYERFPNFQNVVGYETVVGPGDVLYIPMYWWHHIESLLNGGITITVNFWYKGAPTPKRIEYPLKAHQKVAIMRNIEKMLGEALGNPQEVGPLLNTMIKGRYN
Outline: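 FIH-catalysed CA1-20 peptide hydroxylation with varied 2OG or 2OG derivative, 20 μM ammonium iron(II) sulfate plus L-ascorbic acid, in 50 mM Tris, 50 mM NaCl, pH 7.5, 20 °C, monitored by SPE-MS (~1 sample/40 s). Initial rates fitted to Michaelis–Menten for vapp and Kapp; independent triplicates.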

- SPE-MS determined concentration of hydroxylated HIF-1a peptide (FIH; 4 uM compound 22, time 2.098 min): 0.04779 µM and 0.05783 µM and 0.03772 µM
- SPE-MS determined concentration of hydroxylated HIF-1a peptide (FIH; 4 uM compound 22, time 2.797 min): 0.05438 µM and 0.0588 µM and 0.03391 µM
- SPE-MS determined concentration of hydroxylated HIF-1a peptide (FIH; 4 uM compound 22 as cosubstrate, time 3.49667 min, replicates 1-3): 0.05919 µM and 0.07205 µM and 0.04053 µM
- SPE-MS determined concentration of hydroxylated HIF-1a peptide (FIH; 8 uM compound 22, time 0.699833 min): 0.02809 µM and 0.04706 µM and 0.04281 µM
- SPE-MS determined concentration of hydroxylated HIF-1a peptide (FIH; 8 uM compound 22, time 2.098 min): 0.0572 µM and 0.06337 µM and 0.07945 µM
- SPE-MS determined concentration of hydroxylated HIF-1a peptide (FIH; 8 uM compound 22, time 2.797 min): 0.05834 µM and 0.07508 µM and 0.08857 µM
- SPE-MS determined concentration of hydroxylated HIF-1a peptide (FIH; 8 uM compound 22 as cosubstrate, time 3.49667 min, replicates 1-3): 0.08563 µM and 0.07413 µM and 0.09575 µM
- SPE-MS determined concentration of hydroxylated HIF-1a peptide (FIH; 8 uM compound 22 as cosubstrate, time 4.19733 min, replicates 1-3): 0.0782 µM
- SPE-MS determined concentration of hydroxylated HIF-1a peptide (FIH; 16 uM compound 22, time 0.699833 min): 0.06076 µM and 0.05382 µM and 0.0426 µM
- SPE-MS determined concentration of hydroxylated HIF-1a peptide (FIH; 16 uM compound 22, time 2.098 min): 0.08485 µM and 0.09545 µM and 0.07537 µM
- SPE-MS determined concentration of hydroxylated HIF-1a peptide (FIH; 16 uM compound 22, time 2.797 min): 0.09668 µM and 0.1092 µM and 0.09109 µM
- SPE-MS determined concentration of hydroxylated HIF-1a peptide (FIH; 16 uM compound 22 as cosubstrate, time 3.49667 min, replicates 1-3): 0.105 µM and 0.1268 µM and 0.09176 µM
- SPE-MS determined concentration of hydroxylated HIF-1a peptide (FIH; 32 uM compound 22, time 0.699833 min): 0.06848 µM and 0.06274 µM and 0.0479 µM
- SPE-MS determined concentration of hydroxylated HIF-1a peptide (FIH; 32 uM compound 22, time 2.098 min): 0.1104 µM and 0.1151 µM and 0.1012 µM
- SPE-MS determined concentration of hydroxylated HIF-1a peptide (FIH; 32 uM compound 22, time 2.797 min): 0.1309 µM and 0.1405 µM and 0.1242 µM
- SPE-MS determined concentration of hydroxylated HIF-1a peptide (FIH; 32 uM compound 22 as cosubstrate, time 3.49667 min, replicates 1-3): 0.1431 µM and 0.1593 µM and 0.14 µM
- SPE-MS determined concentration of hydroxylated HIF-1a peptide (FIH; 64 uM compound 22, time 0 min): 0.02766 µM and 0.02 µM and 0.02798 µM
- SPE-MS determined concentration of hydroxylated HIF-1a peptide (FIH; 64 uM compound 22, time 0.699833 min): 0.06638 µM and 0.06107 µM and 0.07538 µM
- SPE-MS determined concentration of hydroxylated HIF-1a peptide (FIH; 64 uM compound 22, time 2.098 min): 0.1181 µM and 0.1293 µM and 0.1259 µM
- SPE-MS determined concentration of hydroxylated HIF-1a peptide (FIH; 64 uM compound 22, time 2.797 min): 0.146 µM and 0.1627 µM and 0.1536 µM
- SPE-MS determined concentration of hydroxylated HIF-1a peptide (FIH; 64 uM compound 22 as cosubstrate, time 3.49667 min, replicates 1-3): 0.169 µM and 0.1906 µM and 0.171 µM
- SPE-MS determined concentration of hydroxylated HIF-1a peptide (FIH; 128 uM compound 22, time 0.699833 min): 0.06651 µM and 0.09916 µM and 0.08534 µM
- SPE-MS determined concentration of hydroxylated HIF-1a peptide (FIH; 128 uM compound 22, time 2.098 min): 0.1375 µM and 0.1676 µM and 0.1537 µM
- SPE-MS determined concentration of hydroxylated HIF-1a peptide (FIH; 128 uM compound 22, time 2.797 min): 0.162 µM and 0.1955 µM and 0.1789 µM
- SPE-MS determined concentration of hydroxylated HIF-1a peptide (FIH; 128 uM compound 22 as cosubstrate, time 3.49667 min, replicates 1-3): 0.1878 µM and 0.2084 µM and 0.2042 µM
- SPE-MS determined concentration of hydroxylated HIF-1a peptide (FIH; 256 uM compound 22, time 0 min): 0.05949 µM and 0.04197 µM
- SPE-MS determined concentration of hydroxylated HIF-1a peptide (FIH; 256 uM compound 22, time 0.699833 min): 0.1 µM and 0.09439 µM
- SPE-MS determined concentration of hydroxylated HIF-1a peptide (FIH; 256 uM compound 22, time 2.098 min): 0.1712 µM and 0.1647 µM
- SPE-MS determined concentration of hydroxylated HIF-1a peptide (FIH; 256 uM compound 22, time 2.797 min): 0.1988 µM and 0.1857 µM
- SPE-MS determined concentration of hydroxylated HIF-1a peptide (FIH; 256 uM compound 22 as cosubstrate, time 3.49667 min, replicates 2-3 (replicate 1 empty)): 0.2377 µM and 0.2176 µM
- slope of initial reaction rate (FIH; CA1-20, 16 μM 22): 0.001019 and 0.001398 and 0.001783
- slope of initial reaction rate (FIH; CA1-20, 32 μM 22): 0.002274 and 0.002243 and 0.002771
- slope of initial reaction rate (FIH; CA1-20, 64 μM 22): 0.003753 and 0.003305 and 0.003867
- slope of initial reaction rate (FIH; CA1-20, 128 μM 22): 0.0046 and 0.003872 and 0.004223
- slope of initial reaction rate (FIH; CA1-20, 256 μM 22): 0.004108 and 0.004197 and 0.004611
- FIH Kmapp (FIH; CA1–20 substrate): 39 µM
- slope of initial reaction rate (FIH; HIF-1a788-822, 8 μM 22): 0.000249 and 0.000403 and 0.000322
- slope of initial reaction rate (FIH; HIF-1a788-822, 16 μM 22): 0.000332 and 0.000535 and 0.000447
- slope of initial reaction rate (FIH; HIF-1a788-822, 32 μM 22): 0.000561 and 0.000718 and 0.000685
- slope of initial reaction rate (FIH; HIF-1a788-822, 64 μM 22): 0.000686 and 0.000843 and 0.000711
- slope of initial reaction rate (FIH; HIF-1a788-822, 128 μM 22): 0.000874 and 0.000824 and 0.000795
- slope of initial reaction rate (FIH; HIF-1a788-822, 256 μM 22): 0.000833 and 0.000843
- FIH Kmapp (FIH; HIF-1α788–822 substrate): 15 µM
Structure (SMILES): O=C(O)C(=O)C1CCC(C(=O)O)C1 (stereo not drawn) [compound 22, 3-(carboxycarbonyl)cyclopentane-1-carboxylic acid]
- IC50 (AspH [1]): 5 µM
- AspH activity, %-substrate conversion (AspH [2]): ~15%
